Data published in US20260102501A1, “ANTI-CANCER NUCLEAR HORMONE RECEPTOR-TARGETING COMPOUNDS” (Nuvation Bio Inc., priority 2022, published 2026).

What was measured:
[1] = biological target: T1, AR (cytosol from LnCaP cells) (Homo sapiens, UniProt P10275, T878A); assay: AR binding assay (3H-R1881 displacement)
T1 sequence (P10275 1-920 T878A): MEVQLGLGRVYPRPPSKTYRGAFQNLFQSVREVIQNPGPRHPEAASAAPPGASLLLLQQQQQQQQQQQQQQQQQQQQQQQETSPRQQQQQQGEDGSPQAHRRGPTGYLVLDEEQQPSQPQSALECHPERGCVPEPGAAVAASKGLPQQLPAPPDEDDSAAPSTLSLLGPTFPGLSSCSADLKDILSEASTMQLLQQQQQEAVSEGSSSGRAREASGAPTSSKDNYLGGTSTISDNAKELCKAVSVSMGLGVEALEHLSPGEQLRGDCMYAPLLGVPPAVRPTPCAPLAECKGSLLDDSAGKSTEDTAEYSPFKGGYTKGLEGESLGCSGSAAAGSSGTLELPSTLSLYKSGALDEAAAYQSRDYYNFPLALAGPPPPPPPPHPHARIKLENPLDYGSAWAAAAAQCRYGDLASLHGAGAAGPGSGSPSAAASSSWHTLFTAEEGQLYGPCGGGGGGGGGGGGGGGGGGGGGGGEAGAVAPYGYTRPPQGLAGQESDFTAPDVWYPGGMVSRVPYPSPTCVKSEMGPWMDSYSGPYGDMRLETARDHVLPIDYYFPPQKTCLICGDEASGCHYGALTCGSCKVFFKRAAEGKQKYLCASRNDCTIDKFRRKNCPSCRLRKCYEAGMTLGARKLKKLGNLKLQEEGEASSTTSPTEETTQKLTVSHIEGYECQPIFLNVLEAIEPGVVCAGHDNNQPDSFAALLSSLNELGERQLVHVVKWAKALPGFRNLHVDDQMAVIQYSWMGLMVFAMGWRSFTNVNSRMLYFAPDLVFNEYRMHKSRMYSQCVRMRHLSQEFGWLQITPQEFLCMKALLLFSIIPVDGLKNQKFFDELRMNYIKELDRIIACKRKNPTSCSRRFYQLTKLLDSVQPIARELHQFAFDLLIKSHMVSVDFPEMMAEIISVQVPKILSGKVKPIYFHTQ
Description: The plate was then centrifuged at 3000 rpm for 30 minutes at 4° C.

[2] = biological target: T2, Progesterone Receptor (PR)-LBD and coactivator peptide (Homo sapiens, UniProt P06401); assay: PR coactivator antagonist assay; conditions: 2.5 nM PR-LBD, 10 nM progesterone-induced fluorescence response
T2 sequence (P06401 679-913 limits assumed): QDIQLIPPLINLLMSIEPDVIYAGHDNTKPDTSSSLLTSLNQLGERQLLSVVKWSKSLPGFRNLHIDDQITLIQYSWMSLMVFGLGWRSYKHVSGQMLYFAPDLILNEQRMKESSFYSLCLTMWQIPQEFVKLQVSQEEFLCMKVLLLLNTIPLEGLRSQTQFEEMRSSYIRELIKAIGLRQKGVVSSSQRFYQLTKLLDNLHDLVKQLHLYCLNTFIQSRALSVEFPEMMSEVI

LNCap cells = assay: Cell viability assay (CellTiterGlo); format: cell-based; conditions: Homo sapiens, 144 h, read-out: LNCap (IC50, nM)
[3] = biological target: T3, Progesterone PR-B receptors from human breast carcinoma T47D cells (Homo sapiens, UniProt P06401); assay: PR binding assay ([3H] Progesterone displacement)
T3 sequence (P06401 1-933): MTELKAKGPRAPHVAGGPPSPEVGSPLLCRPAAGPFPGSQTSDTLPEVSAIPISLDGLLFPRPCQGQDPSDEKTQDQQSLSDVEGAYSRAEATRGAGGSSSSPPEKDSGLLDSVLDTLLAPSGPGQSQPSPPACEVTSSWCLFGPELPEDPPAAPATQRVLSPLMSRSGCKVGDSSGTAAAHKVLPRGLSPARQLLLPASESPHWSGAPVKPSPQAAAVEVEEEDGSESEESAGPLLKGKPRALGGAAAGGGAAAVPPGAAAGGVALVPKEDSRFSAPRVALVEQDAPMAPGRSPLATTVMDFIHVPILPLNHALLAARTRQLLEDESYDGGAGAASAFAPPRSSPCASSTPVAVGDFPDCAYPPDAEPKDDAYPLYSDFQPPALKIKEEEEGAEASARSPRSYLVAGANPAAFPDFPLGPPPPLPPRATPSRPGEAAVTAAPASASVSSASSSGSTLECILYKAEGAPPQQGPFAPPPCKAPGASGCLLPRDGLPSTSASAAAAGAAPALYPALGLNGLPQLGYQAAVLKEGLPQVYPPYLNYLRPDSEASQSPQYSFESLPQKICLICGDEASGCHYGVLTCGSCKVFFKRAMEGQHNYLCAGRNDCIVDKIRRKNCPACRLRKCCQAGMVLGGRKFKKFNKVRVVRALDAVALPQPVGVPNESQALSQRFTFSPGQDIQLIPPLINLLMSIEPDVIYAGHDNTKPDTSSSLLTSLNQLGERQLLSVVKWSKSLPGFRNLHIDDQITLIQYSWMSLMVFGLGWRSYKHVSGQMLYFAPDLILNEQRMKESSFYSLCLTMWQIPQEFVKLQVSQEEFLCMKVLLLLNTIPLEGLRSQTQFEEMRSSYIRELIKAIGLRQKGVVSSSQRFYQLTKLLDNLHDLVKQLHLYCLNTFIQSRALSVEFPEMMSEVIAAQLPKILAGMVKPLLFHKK

[4] = biological target: T4, ligand binding domain of the glucocorticoid receptor (HEK293 cells stably expressing) (Homo sapiens, UniProt P04150); assay: GR antagonism assay (luciferase reporter)
T4 sequence (P04150 524-758 limits assumed): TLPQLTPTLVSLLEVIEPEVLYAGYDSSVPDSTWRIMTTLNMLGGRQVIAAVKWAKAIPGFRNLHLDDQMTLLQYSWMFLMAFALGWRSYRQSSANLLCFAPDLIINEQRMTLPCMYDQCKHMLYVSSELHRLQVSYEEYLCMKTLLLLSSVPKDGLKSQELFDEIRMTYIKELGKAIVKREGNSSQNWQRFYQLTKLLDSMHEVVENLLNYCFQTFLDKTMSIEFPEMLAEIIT

T47D cells = assay: Cell viability assay (CellTiterGlo); format: cell-based; conditions: Homo sapiens, 144 h, read-out: T47D (IC50, nM)
[5] = biological target: T5, GR (cytosol from IM-9 cells) (Homo sapiens, UniProt P04150); assay: GR binding assay (3H-Dexamethasone displacement)
T5 sequence (P04150 1-777): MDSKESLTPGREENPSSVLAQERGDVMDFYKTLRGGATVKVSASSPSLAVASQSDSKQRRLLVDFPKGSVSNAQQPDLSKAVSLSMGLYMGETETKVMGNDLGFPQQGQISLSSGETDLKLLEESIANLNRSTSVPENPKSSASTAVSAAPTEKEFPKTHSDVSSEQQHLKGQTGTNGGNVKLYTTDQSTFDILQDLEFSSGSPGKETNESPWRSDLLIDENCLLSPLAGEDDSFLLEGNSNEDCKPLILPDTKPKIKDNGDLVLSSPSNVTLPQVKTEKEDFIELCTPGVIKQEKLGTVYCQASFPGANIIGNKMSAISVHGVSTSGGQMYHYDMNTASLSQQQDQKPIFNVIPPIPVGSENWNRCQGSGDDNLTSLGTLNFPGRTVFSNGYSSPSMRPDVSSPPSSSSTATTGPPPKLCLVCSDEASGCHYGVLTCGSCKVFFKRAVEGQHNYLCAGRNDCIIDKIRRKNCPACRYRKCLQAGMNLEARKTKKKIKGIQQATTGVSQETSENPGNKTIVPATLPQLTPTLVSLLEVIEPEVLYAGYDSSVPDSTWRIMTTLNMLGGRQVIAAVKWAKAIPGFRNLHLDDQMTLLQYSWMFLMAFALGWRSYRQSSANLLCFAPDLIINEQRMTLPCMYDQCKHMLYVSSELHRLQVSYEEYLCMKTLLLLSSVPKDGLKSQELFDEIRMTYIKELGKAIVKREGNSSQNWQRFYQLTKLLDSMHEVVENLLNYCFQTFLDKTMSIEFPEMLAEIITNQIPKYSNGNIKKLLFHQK

IEC6 cells = assay: Cell viability assay (CellTiterGlo); conditions: Rattus norvegicus, IEC-6, 144 h, read-out: IEC-6 (IC50, nM)

SMILES	IC50 [1]	PR antagonism [2]	IC50 (LNCap cells)	IC50 [3]	IC50 [4]	IC50 (T47D cells)	IC50 [5]	IC50 (IEC6 cells)
CC[C@@]1(O)C(=O)OCc2c1cc1n(c2=O)Cc2cc3c(CN(C)C)c(OC(=O)N4CCN(CCCCCCCN(C)c5ccc([C@H]6C[C@@]7(C)[C@@H](CC[C@]7(OC(C)=O)C(C)=O)[C@@H]7CCC8=CC(=O)CCC8=C76)cc5)CC4)ccc3nc2-1 [Compound 6, (S)-10-((Dimethylamino)methyl)-4-ethyl-4-hydroxy-3,14-dioxo-3,4,12,14-tetrahydro-1H-pyrano[3′,4′:6,7]indolizino[1,2-b]quinolin-9-yl 4-(7-((4-((8S,11R,13S,14S,17R)-17-acetoxy-17-acetyl-13-methyl-3-oxo-2,3,6,7,8,11,12,13,14,15,16,17-dodecahydro-1H-cyclopenta[a]phenanthren-11-yl)phenyl)(methyl)amino)heptyl)piperazine-1-carboxylate]	10 to 100 nM	a (IC50 =< 10 nM)	101 to 1000 nM	< 10 nM	10 to 100 nM	10 to 100 nM	< 10 nM	> 1000 nM
CCCCCCC(=O)O[C@]1(CC)C(=O)OCc2c1cc1n(c2=O)Cc2cc3c(CN(C)C)c(OC(=O)N4CCN(CCCCCCN(C)c5ccc([C@H]6C[C@@]7(C)[C@@H](CC[C@]7(OC(C)=O)C(C)=O)[C@@H]7CCC8=CC(=O)CCC8=C76)cc5)CC4)ccc3nc2-1 [Compound No. 12, (S)-10-((Dimethylamino)methyl)-4-ethyl-4-(heptanoyloxy)-3,14-dioxo-3,4,12,14-tetrahydro-1H-pyrano[3′,4′:6,7]indolizino[1,2-b]quinolin-9-yl 4-(6-((4-((8S,11R,13S,14S,17R)-17-acetoxy-17-acetyl-13-methyl-3-oxo-2,3,6,7,8,11,12,13,14,15,16,17-dodecahydro-1H-cyclopenta[a]phenanthren-11-yl)phenyl)(methyl)amino)hexyl)piperazine-1-carboxylate]	101 to 1000 nM	a (IC50 =< 10 nM)	> 1000 nM	< 10 nM	10 to 100 nM	> 1000 nM	< 10 nM	> 1000 nM
CC[C@@]1(O)C(=O)OCc2c1cc1n(c2=O)Cc2cc3c(CN(C)C)c(OC(=O)N4C5CC4CN(CCCCCCN(C)c4ccc([C@H]6C[C@@]7(C)[C@@H](CC[C@]7(OC(C)=O)C(C)=O)[C@@H]7CCC8=CC(=O)CCC8=C76)cc4)C5)ccc3nc2-1 [Compound 3, (S)-10-((Dimethylamino)methyl)-4-ethyl-4-hydroxy-3,14-dioxo-3,4,12,14-tetrahydro-1H-pyrano[3′,4′:6,7]indolizino[1,2-b]quinolin-9-yl 3-(6-((4-((8S,11R,13S,14S,17R)-17-acetoxy-17-acetyl-13-methyl-3-oxo-2,3,6,7,8,11,12,13,14,15,16,17-dodecahydro-1H-cyclopenta[a]phenanthren-11-yl)phenyl)(methyl)amino)hexyl)-3,6-diazabicyclo[3.1.1]heptane-6-carboxylate]	10 to 100 nM	a (IC50 =< 10 nM)	101 to 1000 nM	< 10 nM	10 to 100 nM	10 to 100 nM	< 10 nM	> 1000 nM
